Source: US12528777B2, “Quinazolinones derivatives for treatment of non-alcoholic fatty liver disease, preparation and use thereof” (Council of Scientific and Industrial Research, priority 2020, dated 2026)
Entries after “also recorded” stand apart in the source; their conditions may differ.

Legend:
ATGL = assay: qPCR of ATGL mRNA in HepG2 cells; type: cell-based; conditions: 5 μM and 10 μM, 24 hours
Description: (§1) Ubiquitination of ATGL by COP1 is a post translational event, therefore, it is expected that the mRNA level of ATGL will not change compared to control upon treatment with the compound of the present disclosure which inhibit COP1. To establish this, HepG2 cells were treated with 5 μM and 10 μM of the compounds 9, 107, 171, 179 and 73 for 24 hours. RNA was isolated using TRIzol reagent followed by chloroform treatment and precipitation with isopropanol. cDNA was obtained from the isolated RNA and qPCR was carried out using SyBr green reagent. COP1 and ATGL gene expression levels were checked. 18s was used as control. FIG. 8 illustrates that compounds exert no effect on the mRNA levels of ATGL.

COP1 [1] = assay: qPCR of COP1 mRNA in HepG2 cells; type: cell-based; conditions: 5 μM and 10 μM, 24 hours
Description: as §1

HepG2 cells [2] = assay: Confocal microscopy: lipid droplets in oleate induced HepG2 cells; type: cell-based; set-up: key to Reduction in Lipid Droplets: + = slight or in insignificant; ++ = Moderate; +++ and ++++ = active; +++ and ++++ = active; +++++ = very active; conditions: for Number of lipid droplets: HepG2 cells, 250 μM oleate induction; for Reduction in Lipid Droplets: oleate induced HepG2 cells, score
Summary of the method: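 HepG2 cells were loaded with 250 μM oleate and given compound in DMSO (10 μM screen; 10 nM–5 μM dose series) for 24 h; BSA as negative control. Lipid droplets stained with BODIPY/Hoechst, imaged confocally; mean droplets per cell counted over ~20 cells versus oleate-only cells.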

[3] = Metabolic stability using Human Liver Microsomes; type: in vitro ADME; conditions: for % QH (Well stirred model): NADPH, 0-60 min
Description: 1 mM stock solution of test compound was prepared in DMSO and diluted with Acetonitrile:Water (1:1) to get a 100 μM working concentration. 100 mL of Milli Q water was added to K2HPO4 (1.398 g) and KH2PO4 (0.27 g) to get final pH 7.4 solution of potassium phosphate buffer. […] The above mixture was pre incubated for 15 minutes at 37° C. After pre incubation, 32.5 μL of the mixture was added to 17.5 μL of buffer, this was incubated for 60 minutes at 37° C. [60 min Without Cofactor (NADPH)]. 16.25 μL of the pre incubated mixture and 8.75 μL of cofactor was added to 150 μL of acetonitrile containing internal standard [0 min Sample]. 62 μL of cofactor was added to remaining pre incubation mixture [Incubation mixture]. 25 μL of incubation mixture at 0, 5, 15, 30, 60 min and 60 min without cofactor were precipitated with 150 μL of acetonitrile containing internal standard, vortexed and centrifuged at 4000 rpm at 4° C. for 20 minutes. 120 μL of supernatant was diluted with 120 μL of water and analyzed by LC-MS/MS [sample preparation].

COP1 [4] = target: COP1 (Homo sapiens, UniProt Q8NHY2); assay: Immunoprecipitation assay of COP1 autoubiquitination in HepG2 cells; type: cell-based; conditions: 5 μM, 24 hours, MG-132
Description: COP1 is capable of auto ubiquitinating its own self and getting degraded via the proteasomal pathway. To probe into this, HepG2 cells were co-transfected with HA tagged Ubiquitin and myc-flag tagged COP1. The transfected cells were treated with 5 μM of compounds 9, 10, 107 and 238 for 24 hours. MG-132, a proteasomal inhibitor, was added 4 hours before harvesting the cells. Immune complexes were pulled down with anti-myc antibody and immunoblot was done using anti-HA antibody. […] Thus, the compounds of the present disclosure could be potent therapeutic targets by being able to block the proteasomal degradation of ATGL which would then be able to carry out its lipolytic action and reverse the symptoms of steatosis.
For checking the autoubiquitination status of COP1, HepG2 cells were cotransfected with 2 μg each of Myc-DDK-COP1 and HA-Ub plasmids using Lipofectamine 2000 reagent (Invitrogen) in OptiMEM media (HiMedia). The rest of the procedure is similar to that done for Myc-ATGL.

HepG2 cells [5] = assay: Basal oxygen consumption rate (OCR) by Seahorse; type: cell-based; conditions: 5 μM, 24 hours
Description: HepG2 cells were plated in Seahorse cell culture microplates (24 well). Cells were treated with 5 μM of compounds 9, 107, 238 and 238a for 24 hours. The calibrator plate was dipped in the calibrator solution and incubated overnight at 37° C. in a non-CO2 incubator. The next day, cells were washed with Agilent Seahorse XF Base Medium, Minimal DMEM twice, making sure to leave at least 50 μl of media in the wells and incubated for 1 hour at 37° C. in a non-CO2 incubator. Following this, oxygen consumption rate was measured in the Seahorse instrument. FIG. 12 illustrates basal oxygen consumption rate of compounds 9, 107, 238a, and 238.

COP1 (Homo sapiens, UniProt Q8NHY2), sequence (Q8NHY2 whole entry): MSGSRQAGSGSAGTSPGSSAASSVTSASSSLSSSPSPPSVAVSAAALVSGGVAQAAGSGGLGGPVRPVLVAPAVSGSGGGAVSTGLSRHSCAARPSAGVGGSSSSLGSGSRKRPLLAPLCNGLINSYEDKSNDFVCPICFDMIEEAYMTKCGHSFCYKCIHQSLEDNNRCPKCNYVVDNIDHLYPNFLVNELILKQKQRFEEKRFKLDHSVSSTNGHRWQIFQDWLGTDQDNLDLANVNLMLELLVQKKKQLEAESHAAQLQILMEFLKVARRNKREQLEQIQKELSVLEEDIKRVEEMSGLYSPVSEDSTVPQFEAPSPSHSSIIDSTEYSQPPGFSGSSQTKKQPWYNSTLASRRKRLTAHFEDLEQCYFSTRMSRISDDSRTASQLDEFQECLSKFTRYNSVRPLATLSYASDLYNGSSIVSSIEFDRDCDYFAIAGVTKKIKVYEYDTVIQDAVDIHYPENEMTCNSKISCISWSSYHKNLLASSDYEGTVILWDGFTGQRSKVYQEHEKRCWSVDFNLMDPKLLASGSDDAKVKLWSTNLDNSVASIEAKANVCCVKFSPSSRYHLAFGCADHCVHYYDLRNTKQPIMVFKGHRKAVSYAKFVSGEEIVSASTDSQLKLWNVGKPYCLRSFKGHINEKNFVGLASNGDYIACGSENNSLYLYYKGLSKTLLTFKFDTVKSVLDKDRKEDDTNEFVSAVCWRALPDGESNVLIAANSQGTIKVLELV

Compound: COCC(C)n1cnc2ccc(NC(=O)Nc3cccc(C(C)=O)c3)cc2c1=O (stereo not drawn) [Compound 179, 1-(3-acetylphenyl)-3-(3-(1-methoxypropan-2-yl)-4-oxo-3,4-dihydroquinazolin-6-yl)urea]
- ATGL mRNA level (ATGL): no significant changes
- COP1 mRNA level (COP1 [1]): no significant changes

Compound: CC(=O)c1cccc(NC(=O)Nc2ccc3ncn(CCCN4CCOCC4)c(=O)c3c2)c1 [Compound 139, 1-(3-acetylphenyl)-3-(3-(3-morpholinopropyl)-4-oxo-3,4-dihydroquinazolin-6-yl)urea]
- Number of lipid droplets (HepG2 cells [2]): reduction in lipid droplets
- Reduction in Lipid Droplets (HepG2 cells [2]): +++
- Clearance class from % QH [3]: medium clearance
- % QH (Well stirred model) [3]: 35.3%

Compound: COCCn1c(C)nc2ccc(NC(=O)Nc3cccc(C(C)=O)c3)cc2c1=O [Compound 107, 1-(3-acetylphenyl)-3-(3-(2-methoxyethyl)-2-methyl-4-oxo-3,4-dihydroquinazolin-6-yl)urea]
- Reduction in Lipid Droplets (HepG2 cells [2]): ++++
- COP1 autoubiquitination in HepG2 cells (COP1 [4]): effective in reducing; also recorded: markedly reduce COP1's auto ubiquitination property
- ATGL mRNA level (ATGL): no significant changes
- COP1 mRNA level (COP1 [1]): no significant changes
- Basal oxygen consumption rate (HepG2 cells [5]): higher oxygen consumption rate compared to control; also recorded: increase in the basal OCR values

Compound: COCCn1cnc2ccc(NC(=O)Nc3cccc(C(C)=O)c3)cc2c1=O [Compound 9, 1-(3-acetylphenyl)-3-(3-(2-methoxyethyl)-4-oxo-3,4-dihydroquinazolin-6-yl)urea]
- Number of lipid droplets (HepG2 cells [2]): decrease in the number of lipid droplets
- Reduction in Lipid Droplets (HepG2 cells [2]): ++++
- COP1 autoubiquitination in HepG2 cells (COP1 [4]): effective in reducing; also recorded: markedly reduce COP1's auto ubiquitination property
- ATGL mRNA level (ATGL): no significant changes
- COP1 mRNA level (COP1 [1]): no significant changes
- Clearance class from % QH [3]: lower clearance
- % QH (Well stirred model) [3]: 21.26%
- Basal oxygen consumption rate (HepG2 cells [5]): higher oxygen consumption rate compared to control; also recorded: increase in the basal OCR values

Compound: COCCn1c(-c2ccncc2)nc2ccc(NC(=O)Nc3cccc(C(C)=O)c3)cc2c1=O [Compound 219, 1-(3-acetylphenyl)-3-(3-(2-methoxyethyl)-4-oxo-2-(pyridin-4-yl)-3,4-dihydroquinazolin-6-yl)urea]
- Clearance class from % QH [3]: lower clearance
- % QH (Well stirred model) [3]: 24.5%

Compound: COCCn1c(CN2CCCCC2)nc2ccc(NC(=O)Nc3cccc(C(C)=O)c3)cc2c1=O [Compound 238, 1-(3-acetylphenyl)-3-(3-(2-methoxyethyl)-4-oxo-2-(piperidin-1-ylmethyl)-3,4-dihydroquinazolin-6-yl)urea]
- COP1 autoubiquitination in HepG2 cells (COP1 [4]): markedly reduce COP1's auto ubiquitination property
- Clearance class from % QH [3]: higher clearance
- % QH (Well stirred model) [3]: 83.5%
- Basal oxygen consumption rate (HepG2 cells [5]): higher oxygen consumption rate compared to control; also recorded: increase in the basal OCR values

Compound: COCCn1c(-c2cccnc2)nc2ccc(NC(=O)Nc3cccc(C(C)=O)c3)cc2c1=O [Compound 215, 1-(3-acetylphenyl)-3-(3-(2-methoxyethyl)-4-oxo-2-(pyridin-3-yl)-3,4-dihydroquinazolin-6-yl)urea]
- Clearance class from % QH [3]: lower clearance
- % QH (Well stirred model) [3]: 15.5%
